According to PMC8231992, “Protease Substrate-Independent Universal Assay for Monitoring Digestion of Native Unmodified Proteins” (International Journal of Molecular Sciences, 2021):

Molecular target: T1, papain (Carica papaya, UniProt P00784)
T1 sequence (P00784 134-345): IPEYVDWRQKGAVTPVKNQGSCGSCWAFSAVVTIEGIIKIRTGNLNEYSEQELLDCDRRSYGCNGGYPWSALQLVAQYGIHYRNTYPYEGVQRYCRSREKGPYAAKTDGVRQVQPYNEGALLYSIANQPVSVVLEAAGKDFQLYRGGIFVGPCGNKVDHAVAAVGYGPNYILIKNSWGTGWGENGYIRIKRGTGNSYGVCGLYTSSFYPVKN
Assay: protein-probe time-resolved luminescence digestion assay, heat-denatured carbonic anhydrase substrate ([…] with native substrate)
Assay type: biochemical

IC50: 8.9 ± 0.9 nM
SMILES: CC(C)C[C@H](NC(=O)[C@H]1O[C@@H]1C(=O)O)C(=O)NCCCCN=C(N)N [E-64]
